Legend:
Test in all cases: relative viability (nuclei count vs DMSO), 5 days (fraction); higher = more cells survive
Bleomycin + Lapatinib = compound: CC1=C(N=C(N=C1N)[C@H](CC(=O)N)NC[C@@H](C(=O)N)N)C(=O)N[C@@H]([C@H](C2=CN=CN2)OC3C(C(C(C(O3)CO)O)O)OC4C(C(C(C(O4)CO)O)OC(=O)N)O)C(=O)N[C@H](C)[C@H]([C@H](C)C(=O)N[C@@H]([C@@H](C)O)C(=O)NCCC5=NC(=CS5)C6=NC(=CS6)C(=O)NCCC[S+](C)C)O [Bleomycin] + CS(=O)(=O)CCNCc1ccc(-c2ccc3ncnc(Nc4ccc(OCc5cccc(F)c5)c(Cl)c4)c3c2)o1 [Lapatinib] (partner 2 µM); settings: main component drawn
Summary of the method: (§1)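 Medians of duplicate plates are given as relative viability. That measure is the nuclei count in treated wells divided by the count in vehicle wells. Counts were taken on 4× images of lung cancer cell lines in 1536-well plates, 5 days after pin-tool dosing the day after seeding with one drug alone or a fixed anchor-drug dose plus five library-drug doses (not always all listed) in √10 steps.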

Bleomycin + Pictilisib = compound: CC1=C(N=C(N=C1N)[C@H](CC(=O)N)NC[C@@H](C(=O)N)N)C(=O)N[C@@H]([C@H](C2=CN=CN2)OC3C(C(C(C(O3)CO)O)O)OC4C(C(C(C(O4)CO)O)OC(=O)N)O)C(=O)N[C@H](C)[C@H]([C@H](C)C(=O)N[C@@H]([C@@H](C)O)C(=O)NCCC5=NC(=CS5)C6=NC(=CS6)C(=O)NCCC[S+](C)C)O [Bleomycin] + CS(=O)(=O)N1CCN(Cc2cc3nc(-c4cccc5[nH]ncc45)nc(N4CCOCC4)c3s2)CC1 [Pictilisib] (partner 1 µM); settings: main component drawn
Summary of the method: as §1

Etoposide + Lapatinib = compound: COc1cc([C@@H]2c3cc4c(cc3[C@@H](O[C@@H]3O[C@@H]5CO[C@@H](C)O[C@H]5[C@H](O)[C@H]3O)[C@H]3COC(=O)[C@H]23)OCO4)cc(OC)c1O [Etoposide] + CS(=O)(=O)CCNCc1ccc(-c2ccc3ncnc(Nc4ccc(OCc5cccc(F)c5)c(Cl)c4)c3c2)o1 [Lapatinib] (partner 2 µM)
Summary of the method: as §1

Etoposide + Alpelisib = compound: COc1cc([C@@H]2c3cc4c(cc3[C@@H](O[C@@H]3O[C@@H]5CO[C@@H](C)O[C@H]5[C@H](O)[C@H]3O)[C@H]3COC(=O)[C@H]23)OCO4)cc(OC)c1O [Etoposide] + Cc1nc(NC(=O)N2CCC[C@H]2C(N)=O)sc1-c1ccnc(C(C)(C)C(F)(F)F)c1 [Alpelisib] (partner 2 µM)
Summary of the method: as §1

Row | Cell Line | relative viability (Bleomycin + Lapatinib; first compound 0.01 µM) | relative viability (Bleomycin + Lapatinib; first compound 0.03162 µM) | relative viability (Bleomycin + Lapatinib; first compound 0.1 µM) | relative viability (Bleomycin + Lapatinib; first compound 0.3162 µM) | relative viability (Bleomycin + Lapatinib; first compound 1 µM) | relative viability (Bleomycin + Pictilisib; first compound 0.01 µM) | relative viability (Bleomycin + Pictilisib; first compound 0.03162 µM) | relative viability (Bleomycin + Pictilisib; first compound 0.1 µM) | relative viability (Bleomycin + Pictilisib; first compound 0.3162 µM) | relative viability (Bleomycin + Pictilisib; first compound 1 µM) | relative viability (Etoposide + Lapatinib; first compound 0.01 µM) | relative viability (Etoposide + Lapatinib; first compound 0.03162 µM) | relative viability (Etoposide + Lapatinib; first compound 0.1 µM) | relative viability (Etoposide + Lapatinib; first compound 0.3162 µM) | relative viability (Etoposide + Lapatinib; first compound 1 µM) | relative viability (Etoposide + Alpelisib; first compound 0.01 µM) | relative viability (Etoposide + Alpelisib; first compound 0.03162 µM) | relative viability (Etoposide + Alpelisib; first compound 0.1 µM) | relative viability (Etoposide + Alpelisib; first compound 0.3162 µM) | relative viability (Etoposide + Alpelisib; first compound 1 µM)
1 | NCI-H520 | 0.715 | 0.79 | 0.833 | 0.54 | 0.43 | 0.298 | 0.301 | 0.287 | 0.256 | 0.238 | 0.839 | 0.829 | 0.563 | 0.72 | 0.437 | 0.873 | 0.925 | 0.965 | 0.836 | 0.906
2 | NCI-H661 | 0.501 | 0.374 | 0.349 | 0.204 | 0.219 | 0.523 | 0.387 | 0.263 | 0.25 | 0.245 | 0.44 | 0.416 | 0.314 | 0.283 | 0.235 | 0.995 | 0.61 | 0.413 | 0.388 | 0.3
3 | NCI-H727 | 0.718 | 0.781 | 0.695 | 0.204 | 0.472 | 0.375 | 0.299 | 0.268 | 0.239 | 0.357 | 0.844 | 0.937 | 0.511 | 0.665 | 0.589 | 0.616 | 0.524 | 0.566 | 0.58 | 0.423
4 | NCI-H1793 | 0.729 | 0.567 | 0.544 | 0.275 | 0.219 | 0.398 | 0.314 | 0.312 | 0.233 | 0.169 | 0.543 | 0.682 |  | 0.687 | 0.288 | 0.563 | 0.78 |  | 0.718 | 0.341
5 | NCI-H1734 | 0.802 | 0.854 | 0.691 | 0.268 | 0.184 | 0.382 | 0.411 | 0.357 | 0.267 | 0.22 | 0.971 | 1.05 | 0.612 | 0.515 | 0.273 | 0.698 | 0.822 | 0.509 | 0.517 | 0.381
6 | LXF-289 | 0.807 | 0.884 | 0.635 | 0.206 | 0.179 | 0.713 | 0.799 | 0.685 | 0.358 | 0.15 | 0.88 | 0.972 | 0.953 | 0.601 | 0.222 | 1.02 | 1.07 | 1.04 | 0.655 | 0.244
7 | H3255 | 0.244 | 0.235 | 0.259 | 0.214 | 0.173 | 0.442 | 0.414 | 0.431 | 0.287 | 0.276 | 0.234 | 0.241 | 0.228 | 0.262 | 0.196 | 0.606 | 0.758 | 0.448 | 0.585 | 0.298
8 | 201T | 1 | 0.958 | 0.961 | 0.916 | 0.78 | 0.686 | 0.59 | 0.622 | 0.634 | 0.512 | 1.07 | 1.05 | 0.916 | 0.921 | 0.729 | 1.02 | 1.06 | 0.921 | 0.94 | 0.691
9 | NCI-H2228 | 0.999 | 1.12 | 0.852 | 0.355 | 0.505 | 0.553 | 0.356 | 0.386 | 0.361 | 0.328 | 0.84 | 1.05 | 0.846 | 0.703 | 0.138 | 0.864 | 1.01 | 0.713 | 0.442 | 0.224
10 | HOP-62 | 0.485 | 0.395 | 0.15 | 0.14 | 0.141 | 0.427 | 0.31 | 0.389 | 0.115 | 0.103 | 0.973 | 1.05 | 0.833 | 0.533 | 0.187 | 0.995 | 1.25 | 0.518 | 0.663 | 0.294
11 | CAL-12T |  | 0.557 | 0.454 | 0.218 | 0.21 |  | 0.588 | 0.394 | 0.207 | 0.236 | 0.73 | 0.688 | 0.434 | 0.52 | 0.356 | 1.15 | 1.2 | 1.32 | 0.799 | 0.306
12 | NCI-H596 | 0.852 | 0.742 | 0.547 | 0.416 | 0.452 | 0.379 | 0.419 | 0.329 | 0.268 | 0.261 | 0.94 | 1.03 |  | 1.08 | 0.625 | 0.383 | 0.491 |  | 0.457 | 0.425
13 | NCI-H1755 | 0.91 | 1.03 | 0.92 | 0.631 | 0.578 | 0.429 | 0.498 | 0.385 | 0.282 | 0.247 | 1.06 | 1.13 | 1.02 | 0.988 | 0.71 | 0.919 | 0.907 | 0.888 | 0.871 | 0.639
14 | NCI-H2023 | 0.521 | 0.664 | 0.506 | 0.19 | 0.101 | 0.225 | 0.193 | 0.158 | 0.124 | 0.0805 | 0.886 | 0.895 | 0.293 | 0.372 | 0.0709 | 0.597 | 0.615 | 0.543 | 0.388 | 0.138
15 | NCI-H2009 | 0.808 | 0.892 | 0.92 | 0.379 | 0.365 | 0.768 | 0.672 | 0.749 | 0.324 | 0.405 | 0.885 | 1.08 | 0.856 | 0.408 | 0.247 | 1.12 | 1.18 | 1.19 | 1.06 | 0.388

From the supplement of paper PMC10307832
